Data on 18 compounds can be found in article PMC11721617, “Novel isobavachalcone derivatives induce apoptosis and necroptosis in human non-small cell lung cancer H1975 cells” (Journal of Enzyme Inhibition and Medicinal Chemistry, 2023).

The test system of one data set is H1975. Description: MTT assay, cytotoxic activity / cell viability. It is filed as cell-based, human. Particulars: Homo sapiens, NCI-H1975. On the procedure: (§1) Four cell lines (H1975, A549, PC9, and Aml-12) were cultured in RPMI 1640 medium containing 10% foetal bovine serum (FBS) and 1% penicillin/streptomycin in an atmosphere with 5% CO2 and 95% relative humidity at 37 °C.
(§2) Cell viability was examined using the MTT assay. The cells grown in the logarithmic phase were seeded in 96-well plates at a density of 5 × 10^3 per well. The cells were treated with various concentrations (0, 5, 10, 20, 40, and 80 μM) of the compound at different times, respectively. At the end of time point, MTT solution (5 mg/ml) was added to each well and incubated at 37 °C for 4 h. Next, the media was removed, and formazan was dissolved in DMSO. Finally, absorbance was measured with a microplate spectrophotometer at 490 nm (Synergy HT, BioTek, VT, USA).

Another data set concerns A549. Description: MTT assay, cytotoxic activity. Type of data set: cell-based, human. The following applies: Homo sapiens; A549 cells, 72 h, MTT. The method, then:
as §1, §2

The subject of a further data set is PC9. Description: MTT assay, cytotoxic activity. It is filed as cell-based. The following applies: Homo sapiens, PC-9, PC9 cells, 72 h. The method, then: as §1, §2
A short description of data set [1]: MTT assay, cytotoxic activity on normal hepatocytes. It is filed as cell-based, mouse. Particulars: Aml-12 cells (normal hepatocytes); normal mouse hepatocytes Aml-12 cells, 72 h. On the procedure:
as §1, §2

[2] abbreviates: H1975 cells, 72 h, MTT, read-out: Cytotoxic activity IC50, H1975.

The structures appear in SMILES notation. Like-named read-outs stand apart in the source and are kept apart here. Bounds are passed on as bounds.

On to `CC(C)=CCc1c(OCc2ccccc2)ccc(C(=O)/C=C/c2ccc(OCc3ccccc3)cc2)c1O` [Compound 4, (E)-1-(4-(Benzyloxy)-2-hydroxy-3-(3-methylbut-2-en-1-yl)phenyl)-3-(4-(benzyl-oxy)phenyl)prop-2-en-1-one], for which the IC50 in the data set with H1975 (setting [2]), in the data set on A549 and in the data set with PC9 was over 50 µM throughout.

As to `CC(C)=CCc1c(O)c(C(=O)/C=C/c2ccc(O)cc2)cc(C(c2ccc(Br)cc2)N2CCOCC2)c1O` (stereo not drawn) [Compound 10, (E)-1-(5-((4-Bromophenyl)(morpholino)methyl)-2,4-dihydroxy-3-(3-methylbut-2-en-1-yl)phenyl)-3-(4-hydroxyphenyl)prop-2-en-1-one], the results for the half-maximal inhibitory concentration (IC50) in the data set with H1975 (setting [2]), with A549 and with PC9 were 6.76 µM, 34.8 µM and 18.6 µM, respectively.

In the case of `CC(C)=CCc1c(O)c(C(=O)/C=C/c2ccc(O)cc2)cc(C(c2ccc(C(=O)O)cc2)N2CCOCC2)c1O` (stereo not drawn) [Compound 14, (E)-4-((2,4-Dihydroxy-5-(3-(4-hydroxyphenyl)acryloyl)-3-(3-methylbut-2-en-1-yl)phenyl)(morpholino)methyl)benzoic acid], the values for the half-maximal inhibitory concentration (IC50) with H1975 (setting [2]), in the data set on A549 and with PC9 were 23.6 µM, over 50 µM and over 50 µM, respectively.

With `CC(C)=CCc1c(O)c(C(=O)/C=C/c2ccc(O)cc2)cc(C(c2ccc(Cl)cc2)N2CCOCC2)c1O` (stereo not drawn) [Compound 11, (E)-1-(5-((4-Chlorophenyl)(morpholino)methyl)-2,4-dihydroxy-3-(3-methylbut-2-en-1-yl)phenyl)-3-(4-hydroxyphenyl)prop-2-en-1-one], the 50% inhibitory concentration (IC50) in the data set on H1975 (setting [2]) amounted to 11.4 µM; with A549 it was 21.8 µM; with PC9, 19.7 µM.

For the compound `COc1ccc(/C=C/C(=O)c2ccc(O)c(CC=C(C)C)c2O)cc1` [Compound 1, (E)-1-(2,4-Dihydroxy-3-(3-methylbut-2-en-1-yl)phenyl)-3-(4-methoxyphenyl)prop-2-en-1-one], the half-inhibitory concentration (IC50) was 38 µM in the data set with H1975 (setting [2]), 41.6 µM in the data set with A549 and 14.3 µM in the data set on PC9.

`CC(C)=CCc1c(O)c(C(=O)/C=C/c2ccc(O)cc2)cc(C(c2ccncc2)N2CCOCC2)c1O` (stereo not drawn) [Compound 8, (E)-1-(2,4-Dihydroxy-3-(3-methylbut-2-en-1-yl)-5-(morpholino(pyridin-4-yl)methyl)phenyl)-3-(4-hydroxyphenyl)prop-2-en-1-one]: the IC50 with H1975 (setting [2]) worked out at 13.8 µM; in the data set with A549 it was 39.2 µM; in the data set with PC9 it was 29.9 µM.

Consider `CC(=O)O[C@H]1C(=O)[C@@]2(C)[C@H]([C@H](OC(=O)c3ccccc3)[C@]3(O)C[C@H](OC(=O)[C@H](O)[C@@H](NC(=O)c4ccccc4)c4ccccc4)C(C)=C1C3(C)C)[C@]1(OC(C)=O)CO[C@@H]1C[C@@H]2O` [Paclitaxel, reference compound], for which the 50% inhibitory concentration (IC50) at 72 h in data set [1] came to 2.51 ± 0.13 µM. Further, the figures for the IC50 in the data set on H1975 (setting [2]), in the data set on A549 and with PC9 were 0.01 µM, 1.61 µM and 0.06 µM, respectively.

For `CC(C)=CCc1c(O)ccc(C(=O)/C=C/c2ccc(O)cc2)c1O` [IBC, isobavachalcone], the concentration for half-maximal inhibition (IC50) at 72 h in data set [1] came out at 17.7 ± 1.2 µM. For the same compound, the half-inhibitory concentration (IC50) came to 17.9 µM in the data set on H1975 (setting [2]), 21.7 µM in the data set with A549 and 9.22 µM in the data set on PC9.

Consider `COc1ccc(C(=O)/C=C/c2ccc(O)cc2)c(O)c1CC=C(C)C` [Compound 2, (E)-1-(2-Hydroxy-4-methoxy-3-(3-methylbut-2-en-1-yl)phenyl)-3-(4-hydroxyphenyl) prop-2-en-1-one], for which the figures for the IC50 in the data set with H1975 (setting [2]), with A549 and in the data set with PC9 were 40.5 µM, over 50 µM and 35.3 µM, respectively.

Turning to `CC(C)=CCc1c(O)c(/C=N/NC(=N)N)cc(C(=O)/C=C/c2ccc(O)cc2)c1O` [Compound 7, 2-((E)-2,4-Dihydroxy-5-((E)-3-(4-hydroxyphenyl)acryloyl)-3-(3-methylbut-2-en-1-yl)benzylidene)hydrazine-1-carboximidamide], the concentration for half-maximal inhibition (IC50) was 7.33 µM in the data set with H1975 (setting [2]); 4.35 to 15 µM in the data set on H1975 (read-out: IC50 values against H1975 and A549 cell lines (range over both)); 15 µM in the data set on A549; 8.3 µM in the data set on PC9.

Take `COc1ccc(/C=C/C(=O)c2ccc(OC)c(CC=C(C)C)c2O)cc1` [Compound 3, (E)-1-(2-Hydroxy-4-methoxy-3-(3-methylbut-2-en-1-yl)phenyl)-3-(4-methoxyphenyl) prop-2-en-1-one]: the IC50 in the data set on H1975 (setting [2]), in the data set on A549 and with PC9 was over 50 µM in each case.

Consider `CC(C)=CCc1c(O)ccc(C(=O)/C=C/c2ccc(OCc3ccccc3)cc2)c1O` [Compound 5, (E)-3-(4-(Benzyloxy)phenyl)-1-(2,4-dihydroxy-3-(3-methylbut-2-en-1-yl)phenyl)prop-2-en-1-one], for which the IC50 with H1975 (setting [2]) was 13.6 µM; in the data set on A549, 33.1 µM; with PC9, 24.9 µM.

As to `CC(C)=CCc1c(O)c(C(=O)/C=C/c2ccc(O)cc2)cc(C(c2ccc([N+](=O)[O-])cc2)N2CCOCC2)c1O` (stereo not drawn) [Compound 13, (E)-1-(2,4-Dihydroxy-3-(3-methylbut-2-en-1-yl)-5-(morpholino(4-nitrophenyl)methyl)phenyl)-3-(4-hydroxyphenyl)prop-2-en-1-one], the IC50 with H1975 (setting [2]) is 7.39 µM; with A549, 44.5 µM; in the data set with PC9, 23.5 µM.

`CC(C)=CCc1c(O)c(C(=O)/C=C/c2ccc(O)cc2)cc(C(c2ccc(F)cc2)N2CCOCC2)c1O` (stereo not drawn) [Compound 12, (E)-1-(5-((4-Fluorophenyl)(morpholino)methyl)-2,4-dihydroxy-3-(3-methylbut-2-en-1-yl)phenyl)-3-(4-hydroxyphenyl)prop-2-en-1-one]: the concentration for half-maximal inhibition (IC50) was 12.1 µM in the data set with H1975 (setting [2]), 33 µM with A549 and 20.7 µM in the data set with PC9.

Regarding `CC(C)=CCc1c(O)c(C(=O)/C=C/c2ccc(O)cc2)cc(C(c2ccccc2)N2CCOCC2)c1O` (stereo not drawn) [Compound 9, (E)-1-(2,4-Dihydroxy-3-(3-methylbut-2-en-1-yl)-5-(morpholino(phenyl)methyl)phenyl)-3-(4-hydroxyphenyl)prop-2-en-1-one], the IC50 in the data set with H1975 (setting [2]) was 12.1 µM; with A549, 26.9 µM; in the data set with PC9, 22.8 µM.

In the case of `CC(C)=CCc1c(O)c(C=O)cc(C(=O)/C=C/c2ccc(O)cc2)c1O` [Compound 6, (E)-2,4-Dihydroxy-5-(3-(4-hydroxyphenyl)acryloyl)-3-(3-methylbut-2-en-1-yl)benzylaldehyde], the IC50 in the data set on H1975 (setting [2]) was 5.79 µM; in the data set with A549, 24.1 µM; with PC9, 18.4 µM.

As to `COc1ccc(C(c2cc(C(=O)/C=C/c3ccc(O)cc3)c(O)c(CC=C(C)C)c2O)N2CCOCC2)cc1` (stereo not drawn) [Compound 15, (E)-1-(2,4-Dihydroxy-5-((4-methoxyphenyl)(morpholino)methyl)-3-(3-methylbut-2-en-1-yl)phenyl)-3-(4-hydroxyphenyl)prop-2-en-1-one], the IC50 with H1975 (setting [2]) came out at 11.7 µM; in the data set on A549, 28.9 µM; in the data set on PC9 it was 23.2 µM.

`CC(C)=CCc1c(O)c(C(=O)/C=C/c2ccc(O)cc2)cc(C(c2ccc(C(F)(F)F)cc2)N2CCOCC2)c1O` (stereo not drawn) [Compound 17, (E)-1-(2,4-Dihydroxy-3-(3-methylbut-2-en-1-yl)-5-(morpholino(4-(trifluoromethyl)phenyl)methyl)phenyl)-3-(4-hydroxyphenyl)prop-2-en-1-one]: the values for the IC50 with H1975 (setting [2]), in the data set on A549 and with PC9 were 7.01 µM, 30.1 µM and 20.6 µM, respectively.
